One assay relates to Staphylococcus hominis DMS 20328 (= SH). As to the kind of experiment: MIC determination in microtiter plates, Staphylococcus hominis. In kind it is cell-based. The following applies: Tables 2a/2b, 48 hours at 37° C., ≦20% growth, optical density 620 nm, tested at 120, 60, 30, 15, 7.5 and 3.5 ppm, some approximate. The procedure:
(§1) Determination of the Minimum Inhibitory Concentration (MIC Value) in Microtiter Plates
(§2) Casein/soybean flour peptone bouillon for the preparation of pre-cultures of the test bacteria and yeast.
(§3) Mycological slant agar for the pre-culture of moulds
(§4) The test substances are pre-dissolved in dimethyl sulfoxide (DMSO) and tested in a dilution series of 1:2.
(§5) Bacteria and yeast are cultured overnight in CASO bouillon, the mould is cultured overnight on mycological slant agar, and washed off with 10 ml of 0.85% sodium chloride solution (+0.1% TritonX-100).
(§6) All the test organisms are adjusted to an organism count of 1−5×10^6 CFU/ml using 0.85% sodium chloride solution.
(§7) The test substances are pre-pipetted into microtiter plates in an amount of 8 μl per well.
(§8) Pre-diluted organism suspensions are diluted 1:100 in CASO bouillon (bacteria and yeast) or Sabouraud 2% glucose bouillon (mould) and are added in an amount of 192 μl per well to the test substances.
(§9) The test batches are incubated for 48 hours at 37° C. (bacteria and yeast) or for 5 days at 28° C. (mould).
(§10) After incubation, the growth is evaluated by reference to the turbidity of the test batches (optical density) at 620 nm in a microplate reader.
(§11) One microtiter plate is used for each test organism and substance concentration. All the substances are tested in duplicate.
As to `N#Cc1ccc(COc2ccc(CCN)cc2OCc2ccc(C#N)cc2)cc1` [Compound 13], the “MIC [ppm] SH” value was 120 ppm.
On to `CCC(C)Oc1ccc(CCN)cc1OC(C)CC` (centres unmarked) [Compound 32], for which the “MIC [ppm] SH” value is reported as >120 ppm.
Same read-out and setting: with `CCOC(=O)CCCCOc1ccc(CCN)cc1OCCCCC(=O)OCC` [Compound 28] the figure was >120 ppm.
Take `C=CCCCOc1ccc(CCN)cc1OCCCC=C` [Compound 44]: the “MIC [ppm] SH” value amounted to 60 ppm.
For `COc1cccc(COc2ccc(CCN)cc2OCc2cccc(OC)c2)c1` [Compound 4], the “MIC [ppm] SH” value is on record as 30 ppm.
The same measure, in the same setting: with `NCCc1ccc(OCc2cccc(F)c2)c(OCc2cccc(F)c2)c1` [Compound 16] the figure was 7.5 ppm; with `CCCOc1cc(CCN)cc(OCCC)c1OCCC` [Compound 80], 120 ppm.
Take `NCCc1cc(OCC(=O)OCc2ccccc2)c(OCC(=O)OCc2ccccc2)c(OCC(=O)OCc2ccccc2)c1` [Compound 77]: the “MIC [ppm] SH” value was 120 ppm.
On to `NCCc1cc(OCc2ccc3ccccc3c2)c(OCc2ccc3ccccc3c2)c(OCc2ccc3ccccc3c2)c1` [Compound 71], for which the “MIC [ppm] SH” value is recorded as >120 ppm.
Same read-out and setting: with `CCOC(=O)CCCOc1cc(CCN)cc(OCCCC(=O)OCC)c1OCCCC(=O)OCC` [Compound 78] the figure was >120 ppm; with `NCCc1ccc(OCc2ccc(C(F)(F)F)cc2)c(OCc2ccc(C(F)(F)F)cc2)c1` [Compound 10], 3.75 ppm; with `CCOC(=O)COc1cc(CCN)cc(OCC(=O)OCC)c1OCC(=O)OCC` [Compound 73], >120 ppm.
Regarding `CC(C)OC(=O)COc1ccc(CCN)cc1OCC(=O)OC(C)C` [Compound 24], the “MIC [ppm] SH” value is >120 ppm.

For another assay, the system named is Escherichia coli NCTC 8196 (= EC). As to the kind of experiment: MIC determination in microtiter plates, Escherichia coli. In kind it is cell-based. Particulars: Tables 2a/2b, 48 hours at 37° C., ≦20% growth, optical density 620 nm, some approximate values. The procedure:
as §1, §2, §3, §4, §5, §6, §7, §8, §9, §10, §11
Regarding `N#Cc1ccc(COc2ccc(CCN)cc2OCc2ccc(C#N)cc2)cc1` [Compound 13], the “MIC [ppm] EC” value amounted to 120 ppm.
As for `CCC(C)Oc1ccc(CCN)cc1OC(C)CC` (centres unmarked) [Compound 32], the “MIC [ppm] EC” value is >120 ppm.
On to `CCOC(=O)CCCCOc1ccc(CCN)cc1OCCCCC(=O)OCC` [Compound 28], for which the “MIC [ppm] EC” value is >120 ppm.
Consider `C=CCCCOc1ccc(CCN)cc1OCCCC=C` [Compound 44], for which the “MIC [ppm] EC” value is 60 ppm.
As for `COc1cccc(COc2ccc(CCN)cc2OCc2cccc(OC)c2)c1` [Compound 4], the “MIC [ppm] EC” value is reported as 60 ppm.
Still for that read-out and setting: for `NCCc1ccc(OCc2cccc(F)c2)c(OCc2cccc(F)c2)c1` [Compound 16] the value was 7.5 ppm.
`CCCOc1cc(CCN)cc(OCCC)c1OCCC` [Compound 80]: the “MIC [ppm] EC” value is 120 ppm.
On to `NCCc1cc(OCC(=O)OCc2ccccc2)c(OCC(=O)OCc2ccccc2)c(OCC(=O)OCc2ccccc2)c1` [Compound 77], for which the “MIC [ppm] EC” value is >120 ppm.
As to `NCCc1cc(OCc2ccc3ccccc3c2)c(OCc2ccc3ccccc3c2)c(OCc2ccc3ccccc3c2)c1` [Compound 71], the “MIC [ppm] EC” value is >120 ppm.
On the same count and under the same terms, with `CCOC(=O)CCCOc1cc(CCN)cc(OCCCC(=O)OCC)c1OCCCC(=O)OCC` [Compound 78] the figure was >120 ppm; with `NCCc1ccc(OCc2ccc(C(F)(F)F)cc2)c(OCc2ccc(C(F)(F)F)cc2)c1` [Compound 10], 7.5 ppm; with `CCOC(=O)COc1cc(CCN)cc(OCC(=O)OCC)c1OCC(=O)OCC` [Compound 73], >120 ppm.
Turning to `CC(C)OC(=O)COc1ccc(CCN)cc1OCC(=O)OC(C)C` [Compound 24], the “MIC [ppm] EC” value was >120 ppm.

The next assay concerns Pseudomonas aeruginosa CIP A-22 (= PA). The assay can be described thus: MIC determination in microtiter plates, Pseudomonas aeruginosa. It counts as cell-based. Particulars: Tables 2a/2b, 48 hours at 37° C., ≦20% growth, optical density 620 nm, some approximate values. How it is done:
as §1, §2, §3, §4, §5, §6, §7, §8, §9, §10, §11
Take `N#Cc1ccc(COc2ccc(CCN)cc2OCc2ccc(C#N)cc2)cc1` [Compound 13]: the “MIC [ppm] PA” value is given as >120 ppm.
For the compound `CCC(C)Oc1ccc(CCN)cc1OC(C)CC` (centres unmarked) [Compound 32], the “MIC [ppm] PA” value is on record as >120 ppm.
Turning to `CCOC(=O)CCCCOc1ccc(CCN)cc1OCCCCC(=O)OCC` [Compound 28], the “MIC [ppm] PA” value was >120 ppm.
In the case of `C=CCCCOc1ccc(CCN)cc1OCCCC=C` [Compound 44], the “MIC [ppm] PA” value is >120 ppm.
For the compound `COc1cccc(COc2ccc(CCN)cc2OCc2cccc(OC)c2)c1` [Compound 4], the “MIC [ppm] PA” value was >120 ppm.
As to `NCCc1ccc(OCc2cccc(F)c2)c(OCc2cccc(F)c2)c1` [Compound 16], the “MIC [ppm] PA” value came out at 120 ppm.
For `CCCOc1cc(CCN)cc(OCCC)c1OCCC` [Compound 80], the “MIC [ppm] PA” value is reported as >120 ppm.
On to `NCCc1cc(OCC(=O)OCc2ccccc2)c(OCC(=O)OCc2ccccc2)c(OCC(=O)OCc2ccccc2)c1` [Compound 77], for which the “MIC [ppm] PA” value is on record as >120 ppm.
In the case of `NCCc1cc(OCc2ccc3ccccc3c2)c(OCc2ccc3ccccc3c2)c(OCc2ccc3ccccc3c2)c1` [Compound 71], the “MIC [ppm] PA” value was >120 ppm.
On to `CCOC(=O)CCCOc1cc(CCN)cc(OCCCC(=O)OCC)c1OCCCC(=O)OCC` [Compound 78], for which the “MIC [ppm] PA” value is >120 ppm.
For `NCCc1ccc(OCc2ccc(C(F)(F)F)cc2)c(OCc2ccc(C(F)(F)F)cc2)c1` [Compound 10], the “MIC [ppm] PA” value is recorded as >120 ppm.
Consider `CCOC(=O)COc1cc(CCN)cc(OCC(=O)OCC)c1OCC(=O)OCC` [Compound 73], for which the “MIC [ppm] PA” value is >120 ppm.
The same measure, in the same setting: with `CC(C)OC(=O)COc1ccc(CCN)cc1OCC(=O)OC(C)C` [Compound 24] the figure was >120 ppm.

The test system of another assay is Candida albicans ATCC 10231 (= CA). As to the kind of experiment: MIC determination in microtiter plates, Candida albicans. It counts as cell-based. The following applies: Tables 2a/2b, 48 hours at 37° C., ≦20% growth, optical density 620 nm, some approximate values. The procedure: as §1, §2, §3, §4, §5, §6, §7, §8, §9, §10, §11
On to `N#Cc1ccc(COc2ccc(CCN)cc2OCc2ccc(C#N)cc2)cc1` [Compound 13], for which the “MIC [ppm] CA” value is >120 ppm.
Regarding `CCC(C)Oc1ccc(CCN)cc1OC(C)CC` (centres unmarked) [Compound 32], the “MIC [ppm] CA” value was >120 ppm.
Regarding `CCOC(=O)CCCCOc1ccc(CCN)cc1OCCCCC(=O)OCC` [Compound 28], the “MIC [ppm] CA” value is given as >120 ppm.
On to `C=CCCCOc1ccc(CCN)cc1OCCCC=C` [Compound 44], for which the “MIC [ppm] CA” value is 60 ppm.
`COc1cccc(COc2ccc(CCN)cc2OCc2cccc(OC)c2)c1` [Compound 4]: the “MIC [ppm] CA” value is on record as 60 ppm.
With `NCCc1ccc(OCc2cccc(F)c2)c(OCc2cccc(F)c2)c1` [Compound 16], the “MIC [ppm] CA” value is recorded as 7.5 ppm.
On the same count and under the same terms, with `CCCOc1cc(CCN)cc(OCCC)c1OCCC` [Compound 80] the figure was >120 ppm.
On the same count and under the same terms, with `NCCc1cc(OCC(=O)OCc2ccccc2)c(OCC(=O)OCc2ccccc2)c(OCC(=O)OCc2ccccc2)c1` [Compound 77] the figure was >120 ppm.
For the compound `NCCc1cc(OCc2ccc3ccccc3c2)c(OCc2ccc3ccccc3c2)c(OCc2ccc3ccccc3c2)c1` [Compound 71], the “MIC [ppm] CA” value is recorded as >120 ppm.
For `CCOC(=O)CCCOc1cc(CCN)cc(OCCCC(=O)OCC)c1OCCCC(=O)OCC` [Compound 78], the “MIC [ppm] CA” value is listed as >120 ppm.
Regarding `NCCc1ccc(OCc2ccc(C(F)(F)F)cc2)c(OCc2ccc(C(F)(F)F)cc2)c1` [Compound 10], the “MIC [ppm] CA” value worked out at 3.75 ppm.
`CCOC(=O)COc1cc(CCN)cc(OCC(=O)OCC)c1OCC(=O)OCC` [Compound 73]: the “MIC [ppm] CA” value is given as >120 ppm.
Same read-out and setting: with `CC(C)OC(=O)COc1ccc(CCN)cc1OCC(=O)OC(C)C` [Compound 24] the figure was >120 ppm.

For the next assay, the system named is Aspergillus niger ATCC 6275 (= AN). The assay can be described thus: MIC determination in microtiter plates, Aspergillus niger. In kind it is cell-based. The following applies: Tables 2a/2b, 5 days at 28° C., ≦20% growth, optical density 620 nm, some approximate values. How it is done: as §1, §2, §3, §4, §5, §6, §7, §8, §9, §10, §11
Turning to `N#Cc1ccc(COc2ccc(CCN)cc2OCc2ccc(C#N)cc2)cc1` [Compound 13], the “MIC [ppm] AN” value was >120 ppm.
The same measure, in the same setting: for `CCC(C)Oc1ccc(CCN)cc1OC(C)CC` (centres unmarked) [Compound 32] the value was >120 ppm.
In the case of `CCOC(=O)CCCCOc1ccc(CCN)cc1OCCCCC(=O)OCC` [Compound 28], the “MIC [ppm] AN” value was >120 ppm.
For the compound `C=CCCCOc1ccc(CCN)cc1OCCCC=C` [Compound 44], the “MIC [ppm] AN” value is given as >120 ppm.
On the same count and under the same terms, for `COc1cccc(COc2ccc(CCN)cc2OCc2cccc(OC)c2)c1` [Compound 4] the value was 7.5 ppm; for `NCCc1ccc(OCc2cccc(F)c2)c(OCc2cccc(F)c2)c1` [Compound 16], >120 ppm.
Take `CCCOc1cc(CCN)cc(OCCC)c1OCCC` [Compound 80]: the “MIC [ppm] AN” value is 120 ppm.
`NCCc1cc(OCC(=O)OCc2ccccc2)c(OCC(=O)OCc2ccccc2)c(OCC(=O)OCc2ccccc2)c1` [Compound 77]: the “MIC [ppm] AN” value is reported as >120 ppm.
For the compound `NCCc1cc(OCc2ccc3ccccc3c2)c(OCc2ccc3ccccc3c2)c(OCc2ccc3ccccc3c2)c1` [Compound 71], the “MIC [ppm] AN” value is listed as >120 ppm.
As for `CCOC(=O)CCCOc1cc(CCN)cc(OCCCC(=O)OCC)c1OCCCC(=O)OCC` [Compound 78], the “MIC [ppm] AN” value is >120 ppm.
With `NCCc1ccc(OCc2ccc(C(F)(F)F)cc2)c(OCc2ccc(C(F)(F)F)cc2)c1` [Compound 10], the “MIC [ppm] AN” value was >120 ppm.
Turning to `CCOC(=O)COc1cc(CCN)cc(OCC(=O)OCC)c1OCC(=O)OCC` [Compound 73], the “MIC [ppm] AN” value was >120 ppm.
`CC(C)OC(=O)COc1ccc(CCN)cc1OCC(=O)OC(C)C` [Compound 24]: the “MIC [ppm] AN” value is recorded as 15 ppm.

The values above are taken from patent US6846492B2, “Use of phenylethylamine derivatives for the antimicrobial treatment of surfaces” (Ciba Specialty Chemicals Corporation, priority 2000, dated 2005).
